According to patent US20060116354A1, “Antineoplastic ether lipid compounds with modifications at the sn-3 carbon” (priority 2003, published 2006):

Tested on: platelets
Method: Briefly, whole citrated blood is diluted 1:2 with sterile saline and placed in a warm chamber with a mini stir bar. An electronic probe, measuring electrical resistance, is inserted in the sample. The aggregometer is calibrated and the baseline is observed to detect any spontaneous aggregation. The test sample is added and allowed to run for at least 6 minutes. If the sample is an agonist the platelets will start to aggregate and stick to the electronic probe causing resistance across the electrodes to increase. This resistance, in ohms, is measured 6 minutes post addition of sample. The test samples are run at 25, 100, 200, 400 and 800 uM and compared to 100 uM L-ET-18-OCH3.
Collection of Blood Sample for in vitro Platelet Aggregation Testing: Venous blood is collected in 4.5 mL. Vacutainer tubes containing 0.129 M sodium citrate using a 21G needle or larger. Blood is immediately mixed by gentle inversion 15-20 times and kept at room temperature. Dilution ratio is 1 to 9 (3.8% citrate solution:blood). One (2.0 mL) Vacutainer tube containing EDTA is also collected for platelet counts. Complete blood counts (CBC) are measured on the CDC Technologies Hemavet 1500 to ensure that the test subject's platelets are within normal range. Any vials of hemolytic blood or blood containing any clots should be discarded. Platelet aggregation testing must be completed within 3 hours of blood collection. After this time the ability of platelets to aggregate decreases.
Cloudy solutions were warmed to ˜50° C. to dissolve and particles. Dilutions were prepared in PBS or saline at 40× concentration. (25 uL test sample are added to 1000 uL diluted blood (1:40)).

Relative Platelet Aggregation (Ohms) 25 μM [Ohms]	Relative Platelet Aggregation (Ohms) 100 μM [Ohms]	Relative Platelet Aggregation (Ohms) 200 μM [Ohms]	Platelet aggregation response (in words)	SMILES
0	0	0	–	CCCCCCCCCCCCCCCCCCOCC(COP(=O)([O-])OCC[N+](C)(C)C)OC [D-ET18OCH3, 1-O-octadecyl-2-O-methyl-glycerophosphocholine]
13	14	12	elicits a platelet aggregation response	CCCCCCCCCCCCCCCCCCOCC(COP(=O)([O-])OCC[N+](C)(C)C)OC [L-ET18OCH3, 1-O-octadecyl-2-O-methyl-glycerophosphocholine]
